Several values for one entry are separate records, joined by “and”; a condition that tells them apart may be missing. Equal values may be shown once. Activity calls are given as the source filed them. How the calls were made is not given here.
System: rodent lifetime carcinogenesis bioassay, tumor incidence TD50
Test: carcinogenic potency in animals, long-term in vivo studies, CPDB compilation (AID 1745844)
[1] = rat, strain Sprague-Dawley, females, in feed, site: mammary tissue, wider than the gland, lesion: malignant tumor, dosed 104 weeks, study length 104 weeks

CC(C)C(C(=O)OC(C#N)c1cccc(Oc2ccccc2)c1)c1ccc(Cl)cc1 (stereo not drawn)
inactive: TD50 (mouse, strain B6C3F1, females, in feed, site: any site (literature study), lesion: one or several types, types not named, dosed 104 weeks, study length 104 weeks) 173 mg/kg/day | carcinogen call (mouse, strain B6C3F1, females, in feed, site: liver, lesion: hepatocellular adenoma, dosed 104 weeks, study length 104 weeks) negative | carcinogen call (mouse, strain B6C3F1, females, in feed, site: liver, lesion: hepatocellular carcinoma, dosed 104 weeks, study length 104 weeks) negative | carcinogen call (mouse, strain B6C3F1, females, in feed, site: lung, lesion: bronchiolar adenoma, dosed 104 weeks, study length 104 weeks) negative | carcinogen call (mouse, strain B6C3F1, females, in feed, site: lung, lesion: bronchogenic carcinoma, dosed 104 weeks, study length 104 weeks) negative | TD50 (mouse, strain B6C3F1, males, in feed, site: any site (literature study), lesion: one or several types, types not named, dosed 104 weeks, study length 104 weeks) 251 mg/kg/day | carcinogen call (mouse, strain B6C3F1, males, in feed, site: liver, lesion: hepatocellular adenoma, dosed 104 weeks, study length 104 weeks) negative | carcinogen call (mouse, strain B6C3F1, males, in feed, site: liver, lesion: hepatocellular carcinoma, dosed 104 weeks, study length 104 weeks) negative | carcinogen call (mouse, strain B6C3F1, males, in feed, site: lung, lesion: bronchiolar adenoma, dosed 104 weeks, study length 104 weeks) negative | carcinogen call (mouse, strain B6C3F1, males, in feed, site: lung, lesion: bronchogenic carcinoma, dosed 104 weeks, study length 104 weeks) negative | carcinogen call (mouse, strain B6C3F1, males, in feed, site: skin, lesion: fibrosarcoma, dosed 104 weeks, study length 104 weeks) negative | TD50 (mouse, strain C57BL/6, females, by gavage, site: all sites, lesion: lymphoma, dosed 104 weeks, study length 114 weeks) 384 mg/kg/day | TD50 (mouse, strain C57BL/6, females, by gavage, site: any site (literature study), lesion: one or several types, types not named, dosed 104 weeks, study length 114 weeks) 435 mg/kg/day | carcinogen call (mouse, strain C57BL/6, females, by gavage, site: liver, lesion: liver-cell tumor, dosed 104 weeks, study length 114 weeks) negative | carcinogen call (mouse, strain C57BL/6, females, by gavage, site: lung, lesion: adenoma, dosed 104 weeks, study length 114 weeks) negative | TD50 (mouse, strain C57BL/6, males, by gavage, site: all sites, lesion: lymphoma, dosed 104 weeks, study length 114 weeks) 659 mg/kg/day | carcinogen call (mouse, strain C57BL/6, males, by gavage, site: any site (literature study), lesion: one or several types, types not named, dosed 104 weeks, study length 114 weeks) negative | TD50 (mouse, strain C57BL/6, males, by gavage, site: liver, lesion: liver-cell tumor, dosed 104 weeks, study length 114 weeks) 328 mg/kg/day | carcinogen call (mouse, strain C57BL/6, males, by gavage, site: lung, lesion: adenoma, dosed 104 weeks, study length 114 weeks) negative | carcinogen call (rat, strain Sprague-Dawley, females, in feed, site: liver, lesion: round-cell sarcoma, dosed 104 weeks, study length 104 weeks) negative | TD50 (rat, strain Sprague-Dawley, females, in feed, site: mammary gland, lesion: fibroadenoma, dosed 104 weeks, study length 104 weeks) 58 mg/kg/day | TD50 (rat, strain Sprague-Dawley, females, in feed, site: mammary gland, lesion: fibroma, dosed 104 weeks, study length 104 weeks) 2.55 mg/kg/day | TD50 (rat, strain Sprague-Dawley, females, in feed, site: mammary tissue, wider than the gland, lesion: benign tumor, dosed 104 weeks, study length 104 weeks) 43.7 mg/kg/day and 247 mg/kg/day | TD50 [1] 150 mg/kg/day | carcinogen call [1] negative | TD50 (rat, strain Sprague-Dawley, males, in feed, site: subcutaneous tissue, lesion: fibrosarcoma, dosed 104 weeks, study length 104 weeks) 5.04 mg/kg/day | TD50 (rat, strain Sprague-Dawley, males, in feed, site: subcutaneous tissue, lesion: spindle-cell sarcoma, dosed 104 weeks, study length 104 weeks) 266 mg/kg/day

NNC(=O)c1cccnc1
active: TD50 (mouse, strain Swiss albino, females, in drinking water, site: lung, lesion: several types, types named in the paper, dosed 102 weeks, study length 102 weeks) 145 mg/kg/day | TD50 (mouse, strain Swiss albino, males, in drinking water, site: lung, lesion: several types, types named in the paper, dosed 101 weeks, study length 101 weeks) 528 mg/kg/day
511 mg/kg/day: TD50 (mouse, strain Swiss albino, females, in drinking water, site: lung, lesion: adenocarcinoma, dosed 102 weeks, study length 102 weeks)
428 mg/kg/day: TD50 (mouse, strain Swiss albino, males, in drinking water, site: lung, lesion: adenoma, dosed 101 weeks, study length 101 weeks)
inactive: carcinogen call (mouse, strain Swiss albino, females, in drinking water, site: liver, lesion: angioma, dosed 102 weeks, study length 102 weeks) negative | carcinogen call (mouse, strain Swiss albino, females, in drinking water, site: liver, lesion: angiosarcoma, dosed 102 weeks, study length 102 weeks) negative | carcinogen call (mouse, strain Swiss albino, males, in drinking water, site: liver, lesion: angioma, dosed 101 weeks, study length 101 weeks) negative | carcinogen call (mouse, strain Swiss albino, males, in drinking water, site: liver, lesion: angiosarcoma, dosed 101 weeks, study length 101 weeks) negative | TD50 (mouse, strain Swiss albino, males, in drinking water, site: liver, lesion: hepatoma, dosed 101 weeks, study length 101 weeks) 1410 mg/kg/day
181 mg/kg/day: TD50 (mouse, strain Swiss albino, females, in drinking water, site: lung, lesion: adenoma, dosed 102 weeks, study length 102 weeks)

Brc1cc(Br)c(-c2c(Br)c(Br)c(Br)c(Br)c2Br)c(Br)c1Br
active: TD50 (mouse, strain B6C3F1, females, in feed, site: liver, lesion: hepatocellular carcinoma, dosed 78 weeks, study length 78 weeks) 13.7 mg/kg/day | TD50 (mouse, strain B6C3F1, females, in feed, site: liver, lesion: neoplastic nodule, dosed 78 weeks, study length 78 weeks) 4.89 mg/kg/day | TD50 (mouse, strain B6C3F1, males, in feed, site: liver, lesion: hepatoblastoma, dosed 78 weeks, study length 78 weeks) 35.4 mg/kg/day | TD50 (mouse, strain B6C3F1, males, in feed, site: liver, lesion: hepatocellular carcinoma, dosed 78 weeks, study length 78 weeks) 3.44 mg/kg/day | TD50 (mouse, strain B6C3F1, males, in feed, site: liver, lesion: neoplastic nodule, dosed 78 weeks, study length 78 weeks) 2.86 mg/kg/day
4.9 mg/kg/day: TD50 (mouse, strain B6C3F1, females, in feed, site: any site (literature study), lesion: several types, types named in the paper, dosed 78 weeks, study length 78 weeks)
2.07 mg/kg/day: TD50 (mouse, strain B6C3F1, males, in feed, site: any site (literature study), lesion: several types, types named in the paper, dosed 78 weeks, study length 78 weeks)

O=C(O)c1ccc(N=Nc2ccc(O)c(C(=O)O)c2)cc1
15300 mg/kg/day: TD50 (rat, strain Sprague-Dawley, males, in feed, site: thyroid gland, lesion: follicular-cell adenoma, dosed 118 weeks, study length 118 weeks)
inactive: TD50 (mouse, strain NMRI, females, in feed, site: all sites, lesion: lymphoma, dosed 107 weeks, study length 107 weeks) 1200 mg/kg/day | carcinogen call (mouse, strain NMRI, females, in feed, site: liver, lesion: hepatocellular adenoma, dosed 107 weeks, study length 107 weeks) negative | carcinogen call (mouse, strain NMRI, females, in feed, site: lung, lesion: alveolar/bronchiolar adenocarcinoma, dosed 107 weeks, study length 107 weeks) negative | TD50 (mouse, strain NMRI, females, in feed, site: lung, lesion: alveolar/bronchiolar adenoma, dosed 107 weeks, study length 107 weeks) 2650 mg/kg/day | TD50 (mouse, strain NMRI, males, in feed, site: liver, lesion: hepatocellular adenoma, dosed 120 weeks, study length 120 weeks) 35200 mg/kg/day | TD50 (mouse, strain NMRI, males, in feed, site: liver, lesion: hepatocellular carcinoma, dosed 120 weeks, study length 120 weeks) 19500 mg/kg/day | TD50 (mouse, strain NMRI, males, in feed, site: lung, lesion: alveolar/bronchiolar adenocarcinoma, dosed 120 weeks, study length 120 weeks) 14300 mg/kg/day | TD50 (mouse, strain NMRI, males, in feed, site: lung, lesion: alveolar/bronchiolar adenoma, dosed 120 weeks, study length 120 weeks) 13000 mg/kg/day | carcinogen call (rat, strain Sprague-Dawley, females, in feed, site: liver, lesion: hepatocellular tumor, dosed 119 weeks, study length 119 weeks) negative | carcinogen call (rat, strain Sprague-Dawley, males, in feed, site: liver, lesion: hepatocellular adenoma, dosed 118 weeks, study length 118 weeks) negative | carcinogen call (rat, strain Sprague-Dawley, males, in feed, site: liver, lesion: hepatocellular carcinoma, dosed 118 weeks, study length 118 weeks) negative

CCn1cc(C(=O)O)c(=O)c2cc3c(cc21)OCO3
55.1 mg/kg/day: TD50 (mouse, strain ICR, females, in feed, site: lung, lesion: adenoma, dosed 78 weeks, study length 78 weeks)
572 mg/kg/day: TD50 (mouse, strain ICR, females, in feed, site: liver, lesion: hepatocellular adenoma, dosed 78 weeks, study length 78 weeks)
2440 mg/kg/day: TD50 (rat, strain Wistar, females, in feed, site: liver, lesion: hepatocellular carcinoma, dosed 104 weeks, study length 104 weeks)
1790 mg/kg/day: TD50 (rat, strain Wistar, males, in feed, site: any site (literature study), lesion: malignant tumor, dosed 104 weeks, study length 104 weeks)
589 mg/kg/day: TD50 (rat, strain Wistar, females, in feed, site: any site (literature study), lesion: benign tumor, dosed 104 weeks, study length 104 weeks)
1040 mg/kg/day: TD50 (rat, strain Wistar, females, in feed, site: any site (literature study), lesion: malignant tumor, dosed 104 weeks, study length 104 weeks)
active: TD50 (rat, strain Wistar, males, in feed, site: testis, lesion: Leydig-cell adenoma, dosed 104 weeks, study length 104 weeks) 167 mg/kg/day
68.5 mg/kg/day: TD50 (rat, strain Wistar, females, in feed, site: any site (literature study), lesion: several types, types named in the paper, dosed 104 weeks, study length 104 weeks)

N=c1ccn2c(n1)O[C@H]1[C@H](O)[C@@H](CO)O[C@H]12
inactive: carcinogen call (rat, strain Wistar, females, i.p., site: any site (literature study), lesion: one or several types, types not named, dosed 52 weeks, study length 52 weeks) negative | carcinogen call (rat, strain Wistar, females, i.p., site: any site (literature study), lesion: several types, types named in the paper, dosed 104 weeks, study length 104 weeks) negative | carcinogen call (rat, strain Wistar, males, i.p., site: any site (literature study), lesion: one or several types, types not named, dosed 52 weeks, study length 52 weeks) negative | carcinogen call (rat, strain Wistar, males, i.p., site: any site (literature study), lesion: several types, types named in the paper, dosed 104 weeks, study length 104 weeks) negative
